Laboratory results taken from the SangsterLogP compilation.

| Structure (SMILES) | logP |
| --- | --- |
| Clc1ccc2[nH]c(NCCCc3cnc[nH]3)nc2c1 | 2.49 |
| c1ccc2sc(SCCc3cnc[nH]3)nc2c1 | 3.12 |
| S=C(NC1CCCCC1)N1CCC(c2cnc[nH]2)CC1 | 2.4 |
| c1ncc(CCCc2nc(C3CCCCC3)c[nH]2)[nH]1 | 2.94 |
| c1ccc2sc(NCCCc3cnc[nH]3)nc2c1 | 2.71 |
| c1ccc2sc(NCCc3c[nH]cn3)nc2c1 | 2.36 |
| c1ccc(-c2c[nH]c(CCCc3cnc[nH]3)n2)cc1 | 2.5 |
| c1ccc(-c2cnc(SCCc3cnc[nH]3)[nH]2)cc1 | 2.45 |
| Clc1ccc(Cc2noc(CCc3cnc[nH]3)n2)cc1 | 2.51 |
| O=S(=O)(Cc1ccc(Cl)cc1)NCCCCc1cnc[nH]1 | 2.23 |
| c1ccc2sc(SCCCc3cnc[nH]3)nc2c1 | 3.24 |
